Measurements published in paper doi:10.1101/2025.06.09.658245v1 (biorxiv, 2025).

Tests used:
in vitro [1] = details: mouse, liver microsomes
hALOX12B = biological target: T1, hALOX12B (Homo sapiens, UniProt O75342); test: biochemical; details: read-out: % inhibition of ALOX12B enzyme activity
T1 sequence (O75342 1-701): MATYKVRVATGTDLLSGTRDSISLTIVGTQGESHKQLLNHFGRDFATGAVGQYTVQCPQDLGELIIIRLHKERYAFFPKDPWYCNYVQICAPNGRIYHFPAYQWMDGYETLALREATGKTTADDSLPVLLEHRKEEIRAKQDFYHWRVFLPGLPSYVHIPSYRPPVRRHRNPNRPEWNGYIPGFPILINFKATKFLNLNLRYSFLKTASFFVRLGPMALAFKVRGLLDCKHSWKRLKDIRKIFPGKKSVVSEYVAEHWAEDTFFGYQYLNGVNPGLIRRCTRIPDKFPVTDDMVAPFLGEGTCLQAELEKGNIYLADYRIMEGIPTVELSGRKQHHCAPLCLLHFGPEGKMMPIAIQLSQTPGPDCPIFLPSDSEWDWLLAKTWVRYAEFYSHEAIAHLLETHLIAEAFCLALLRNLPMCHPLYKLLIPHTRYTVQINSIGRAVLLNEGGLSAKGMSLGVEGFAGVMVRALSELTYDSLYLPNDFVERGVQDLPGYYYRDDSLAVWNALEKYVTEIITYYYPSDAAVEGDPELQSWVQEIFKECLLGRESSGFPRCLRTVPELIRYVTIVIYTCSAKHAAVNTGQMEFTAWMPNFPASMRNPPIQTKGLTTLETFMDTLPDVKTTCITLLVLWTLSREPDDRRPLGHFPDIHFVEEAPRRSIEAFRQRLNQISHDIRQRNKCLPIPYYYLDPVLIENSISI

in vitro [2] = details: mouse, liver microsomes; remark: listed apart in the source
hERG [3] = biological target: T2, hERG (Homo sapiens, UniProt Q12809); test: in vitro; details: HEK
T2 sequence (Q12809 whole entry): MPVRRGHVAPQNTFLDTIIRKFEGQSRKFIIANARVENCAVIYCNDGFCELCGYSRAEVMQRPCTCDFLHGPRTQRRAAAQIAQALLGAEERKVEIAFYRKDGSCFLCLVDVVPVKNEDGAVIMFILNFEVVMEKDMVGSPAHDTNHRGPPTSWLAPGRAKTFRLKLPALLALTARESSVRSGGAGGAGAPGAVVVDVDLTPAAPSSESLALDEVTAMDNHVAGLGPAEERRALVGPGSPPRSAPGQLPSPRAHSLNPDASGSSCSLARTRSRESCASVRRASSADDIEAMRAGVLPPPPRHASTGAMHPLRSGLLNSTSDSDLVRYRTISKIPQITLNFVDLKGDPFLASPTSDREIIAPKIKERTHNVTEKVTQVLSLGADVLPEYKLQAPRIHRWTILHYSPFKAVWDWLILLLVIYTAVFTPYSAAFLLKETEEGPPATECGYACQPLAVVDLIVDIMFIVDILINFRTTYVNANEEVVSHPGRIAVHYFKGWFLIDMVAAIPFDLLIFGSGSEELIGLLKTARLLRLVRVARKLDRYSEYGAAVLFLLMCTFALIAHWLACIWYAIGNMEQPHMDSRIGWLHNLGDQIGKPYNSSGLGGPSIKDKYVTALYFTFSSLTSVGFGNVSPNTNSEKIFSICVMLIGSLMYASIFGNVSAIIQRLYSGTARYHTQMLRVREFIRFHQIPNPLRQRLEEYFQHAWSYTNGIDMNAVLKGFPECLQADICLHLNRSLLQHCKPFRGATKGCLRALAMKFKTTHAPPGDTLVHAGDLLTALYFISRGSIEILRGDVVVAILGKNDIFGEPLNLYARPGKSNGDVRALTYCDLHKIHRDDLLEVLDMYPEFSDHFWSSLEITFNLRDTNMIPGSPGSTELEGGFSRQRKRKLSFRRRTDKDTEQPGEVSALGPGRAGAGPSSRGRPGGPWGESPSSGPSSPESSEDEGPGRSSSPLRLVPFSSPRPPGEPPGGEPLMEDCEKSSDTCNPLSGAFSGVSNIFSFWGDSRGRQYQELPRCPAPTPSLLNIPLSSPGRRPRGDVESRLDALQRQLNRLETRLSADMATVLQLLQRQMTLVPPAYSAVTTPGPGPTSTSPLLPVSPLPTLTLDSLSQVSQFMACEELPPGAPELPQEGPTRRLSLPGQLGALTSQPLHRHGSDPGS

hERG [4] = biological target: T2, hERG; test: in vitro; details: HEK; remark: listed apart in the source
hERG [5] = biological target: T2, hERG; test: whole-cell patch clamp, IKr current; type: cell-based; details: test concentrations 0.3 to 30 µM; HEK cells stably transfected

half-life at 5 µM (in vitro [1])	inhibition at 10 µM (hALOX12B)	inhibition at 100 µM (hALOX12B)	inhibition at 200 µM (hALOX12B)	microsomal CLint at 5 µM (in vitro [2])	Structure (SMILES)	inhibition at 0.1 µM (hERG [3])	inhibition at 0.3 µM (hERG [4])	inhibition at 1 µM (hERG [4])	inhibition at 3 µM (hERG [4])	inhibition at 10 µM (hERG [4])	inhibition at 30 µM (hERG [4])	% reduction of hERG current at 0.3 to 30 μM (hERG [5])
8.25 h	~23%	~40%	~52%	5.6 µL/min/mg	Nc1ccc(O)cc1-c1cc(=O)c2ccccc2o1 [6a, 2-(2-amino-5-hydroxyphenyl)-4H-chromen-4-one]	-8.53%	13.3%	14.1%	10.6%	10.9%	9.05%	–
–	–	–	–	–	Nc1ccc(O)cc1-c1cc(=O)c2ccccc2o1 [6a]	–	–	–	–	–	–	9-14%
